# Source: the OligoGym collection
# Bases are written 5' to 3'; sugars and linkages follow in the same order, as letters with counts (s phosphorothioate, o phosphodiester; PS: all linkages phosphorothioate). The collection does not say whether C is 5-methylated. l = locked nucleic acid (LNA); d = 2'-deoxy (DNA)
# Target: Tau
# Test: rat primary cortical neurons, FLIPR, 25 uM ASO
row,Sequence,calcium oscillation score
1,"GATTAACCAATTAACCGAAC (sugars l3 d14 l3, PS)",98.8 % of control
2,"TCAACTGGTTTGTAGA (sugars l3 d10 l3, PS)",110 % of control
3,"TTACACCCAAACCTAAA (sugars l4 d9 l4, PS)",92.3 % of control
4,"CACCTCCTATATTCTCAG (sugars l2 d12 l4, PS)",75.4 % of control
5,"TCTTTATTAACACTCCAC (sugars l2 d12 l4, PS)",64.6 % of control
6,"TCTTGTTCTAACCCCACA (sugars l2 d14 l2, PS)",68.1 % of control
7,"TTTTTCTCTCTTAACTTT (sugars l4 d10 l4, PS)",94.5 % of control
8,"CTTTATTTCCAAATTCACTT (sugars l2 d1 l2 d12 l3, PS)",112 % of control
9,"CCTTTTAATTCATTAG (sugars l4 d8 l4, PS)",59 % of control
10,"ACCAGTTACCATCATAC (sugars l4 d11 l2, PS)",93.2 % of control
11,"AAGCTTCCACATTTTAC (sugars l4 d10 l3, PS)",68.4 % of control
12,"TTATTTCCAAATTCACTTTT (sugars llldldddddddddllddll, PS)",110 % of control
13,"AATAAGAAAGGAACGC (sugars l3 d9 l4, PS)",85.7 % of control
14,"CCTTTTCTACTCTACTCTC (sugars l3 d14 l2, PS)",55.7 % of control
15,"TACTATCCACTTGTTA (sugars l3 d11 l2, PS)",61.9 % of control
16,"TTGAAGTCAAGCTTCTCAGA (sugars l3 d14 l3, PS)",0 % of control
17,"ACAACAAACATCTAAACACC (sugars l3 d13 l4, PS)",84.5 % of control
18,"TGGATGTTGCCTAATGAGCC (sugars l3 d14 l3, PS)",0 % of control
19,"AATCCATTTATATTCTTTTA (sugars l4 d12 l4, PS)",38.5 % of control
20,"AACCGTTTTCTTACCAC (sugars l2 d11 l4, PS)",60.1 % of control
21,"TTCCTTTCAATGACCAA (sugars l3 d10 l4, PS)",56.6 % of control
22,"CCAGTGCCTGGCACAACAGG (sugars l3 d14 l3, PS)",4.03 % of control
23,"TATTTCCAAATTCACTTTTA (sugars lldldldddddddddlldll, PS)",141 % of control
24,"TTTACACCACACTGTC (sugars l3 d10 l3, PS)",83.3 % of control
25,"TTTATTAATTCATAAATGAC (sugars l3 d14 l3, PS)",46.3 % of control
26,"ATTAACCAATTAACCG (sugars l3 d10 l3, PS)",103 % of control
27,"CCATCAATTTCCCTGT (sugars l2 d10 l4, PS)",56.3 % of control

row,Sequence,calcium oscillation score
1,"CACCCACTTTCCTAATTCCC (sugars l1 d17 l2, PS)",55.1 % of control
2,"GGTTTGTAGACTATTTGCAC (sugars l3 d14 l3, PS)",0 % of control
3,"CTCCTGGTTTATGATG (sugars l3 d10 l3, PS)",31.3 % of control
4,"TATCTTATTGCTTTCCA (sugars l2 d12 l3, PS)",63 % of control
5,"TCCCTTTCAAACCAGC (sugars l2 d10 l4, PS)",92.3 % of control
6,"TTGCTCAGGTCAACTG (sugars l3 d10 l3, PS)",42.9 % of control
7,"CAATTAACCGAACTGC (sugars l3 d10 l3, PS)",89.7 % of control
8,"CTCACCCCAAACAAGAA (sugars l2 d11 l4, PS)",45.1 % of control
9,"TTTTTTAACTCCCAACTC (sugars l4 d10 l4, PS)",95.2 % of control
10,"ACCTCCTGGTTTATGATGGA (sugars l3 d14 l3, PS)",0 % of control
11,"ATCAGTCTTATCTCCCA (sugars l3 d12 l2, PS)",49.2 % of control
12,"CGTCCCAGCGTGATCTTCCA (sugars lldllddddddddddlldll, PS)",59.6 % of control
13,"TAATAGATCTTTCCCCT (sugars l2 d12 l3, PS)",103 % of control
14,"TGTCCAGGGACCCAATCTTC (sugars l3 d14 l3, PS)",39.9 % of control
15,"TAATAGATCTTTCCCCTC (sugars l2 d13 l3, PS)",101 % of control
16,"ATCTTCGACTGGACTC (sugars l3 d10 l3, PS)",59.7 % of control
17,"GAGCACTAACTCTAAGTAGA (sugars l3 d14 l3, PS)",23.8 % of control
18,"ACCTTTTTCCATCTTACT (sugars l4 d12 l2, PS)",68.4 % of control
19,"CAGATTTAATTCTCACT (sugars l4 d9 l4, PS)",77.7 % of control
20,"ATTATTCTTTTTTTTTCCAC (sugars l3 d14 l3, PS)",15.2 % of control
21,"CTCATTGCAACTTTAAC (sugars l4 d9 l4, PS)",84.9 % of control
22,"CCCTGAAAGAGGGCAG (sugars l3 d10 l3, PS)",18.4 % of control
23,"ACCTTTTTCCATCTTACTAA (sugars l4 d13 l3, PS)",52 % of control
24,"CTGTGCTTCAGGCCTT (sugars l3 d10 l3, PS)",51 % of control
25,"TAGTAAACACCATCTC (sugars l4 d9 l3, PS)",77.2 % of control
26,"TTGCCTAATGAGCCACACTT (sugars l3 d14 l3, PS)",36.5 % of control
27,"TTAACTCATCAACACCT (sugars l4 d9 l4, PS)",86.6 % of control
